The numbers were not newly measured in patent US9611229B2, “1,2,3-triazole-4-amine derivatives for the treatment of sigma receptor related diseases and disorders” (LABORATORIOS DEL DR. ESTEVE S.A., priority 2013, dated 2017), which cites them from elsewhere.

One series concerns the target sigma 2 (σ-2) site (Homo sapiens (Human), UniProt Q5BJF2).
Another series addresses sigma 1 (σ-1) site (Homo sapiens (Human), UniProt Q99720).

Regarding SKF 10047, the “affinity for the sigma 2 (σ-2) site” value on sigma 2 (σ-2) site was “micromolar affinity”. Further, the “affinity for the sigma 1 (σ-1) site” value at sigma 1 (σ-1) site is “nanomolar affinity”.
